In US20130197002A1, “B[…] TREATING VISUAL DISORDERS MEDIATED BY CENTRAL VISUAL P[…] THE EYE” (ALLERGAN, INC., priority 2012, published 2013):

Tested on: rat visual cortex slices
Experiment: Long-term potentiation (LTP) in visual cortex slice
Type: cell-based
Method: Long-Term Potentiation in Visual Cortex Slice
Following decapitation of the anesthetized rat, the brain was rapidly removed and immersed in ice-cold artificial cerebrospinal fluid (ACSF) containing (in mM) NaCl 124, KCl 3, KH2PO4 1.25, CaCl2 3.4, MgSO4 2.5, NaHCO3 26, and D-glucose 10. A block of visual cortex was created by removing the frontal ⅔ portion of the brain and the cerebellum. Coronal visual cortex slices of 350 μm thick were prepared from young adult (200-300 g) male Sprague-Dawley rats using a vibratome (VT 1000 S; Leica). The slices were maintained in an interface recording chamber perfused with preheated ACSF. Slices were continuously perfused with this solution at a rate of 1.00-1.50 ml/min while the surface of the slices was exposed to warm, humidified 95% O2/5% CO2 and maintained at 31±1° C. Visual cortex slices were allowed to recover for 1 hr before recording began. A single stimulating and recording electrode was placed in layer IV and III, respectively, to generate and record field excitatory postsynaptic potentials (fEPSPs). Pulses were administered at 0.05 Hz using a current that produced a fEPSP that is 50% of the maximum spike free response. An input-output (IO) curve is done to determine the stimulation needed to achieve a stable baseline. Following a 15 min stable baseline recording period, a train of 5 theta bursts (each burst containing four pulses at 100 Hz with an inter-burst interval of 200 ms) is delivered to the slice. This is repeated 2 additional times with a 1 minute inter-train interval, and the level of LTP was recorded for at least 30 min. Changes in amplitude of the synaptic response were used to measure the extent of LTP, since the amplitude was determined to be the more consistent parameter than the slope of the response. Control LTP values were obtained from slices not treated with drug. Different slices were used to study drug effects on LTP. Brimonidine was infused after 15 min baseline recording for duration of 20 minutes followed by LTP induction. […] LTP was recorded for at least 30 min after induction.

SMILES | brimonidine-induced enhancement of LTP in presence of alpha 2 pan antagonist (atipamezole plus brimonidine, FIG. 1 right panel) | effect on LTP (brimonidine administered to visual cortex slices, FIG. 1 left panel) | threshold dose for enhancement of LTP (visual cortex slices, FIG. 1 left panel) [nM]
CCC1(c2cnc[nH]2)Cc2ccccc2C1 [atipamezole] | fully suppressed |  | 
Brc1c(N=C2NCCN2)ccc2nccnc12 [brimonidine, (5-bromo-quinoxalin-6-yl)-imidazolidin-2-ylidene-amine] |  | marked and dose-dependent enhancement of LTP | 3
